# Reference: patent publication US10682371B2, “Small molecule conjugates specifically activated in tumor microenvironment for targeting and use thereof” (priority 2014, dated 2020)
# Where two headings read alike, the source gives them in different places.
# How the values were obtained:
# [1] = test system: Human fibrosarcoma HT-1080 tumor tissue homogenate; assay type: biochemical; details: for Activation ratio (%) in homogenates from different tumor tissues: Human fibrosarcoma HT-1080
# Procedure, shortened: (§1)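 Homogenized tissue (100 μg) is acidified to pH6.0. Test compound is then added at 1 mg/ml, and the mixture is held at 37° C so that the proteases present can activate it.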
# 4T1 cells = assay: BALB/C mice model for tumor metastasis (4T1, lung metastases); assay type: in vivo; details: for Inhibitory effect on tumor metastasis, in words: compared with parent drug group and control group
# Procedure, shortened: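 Read-out: lung metastasis count under anatomical microscope after Bouin's staining, day 27. Treatment (IV every three days ×4, saline for controls) started after surgical removal of the ~1.5 cm subcutaneous tumor grown from 10^6 4T1 cells (passage ≤15) in BALB/C mice.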
# [2] = test system: Human breast cancer MDA-MB435; assay: Multiple tumor models in nude mice: MDA-MB435; assay type: in vivo; details: 15 mg/kg once weekly for three weeks, Day 26
# Procedure: (§2) 1) Corresponding tumor cells were purchased from American type culture collection (ATCC) and identified according the specification provided by ATCC. Cells were cultivated in DMEM culture solution containing 10% fetal bovine serum at 37° C. and 5% CO2. The cells were passaged for every three days and cells within the 15th passage were used.
# (§3) 2) Production of tumor. 5×10^6 corresponding cells were subcutaneously injected to the back of the nude mice. Mice were randomly grouped after the tumor reached at least 100 mm^3. Then treatment began and the day on which the treatment began was day 1.
# (§4) 3) Course of treatment. […] The control group was administered by physiological saline. Animals were administered once weekly for three weeks.
# (§5) 3) Course of treatment. According to the clinical application of A1, A1 was administered in a dose of ⅙ MTD, i.v., 17.6 μmol/kg. The control group was administered by physiological saline. Animals were administered once weekly for three weeks.
# (§6) 3) Course of treatment. According to the clinical application of B1, B1 was administered in a dose of ⅙ MTD, i.v., 17.6 μmol/kg. The control group was administered by physiological saline. Animals were administered once weekly for three weeks.
# as §4, §4
# [3] = test system: Human ovarian cancer SK-OV-3; assay: Multiple tumor models in nude mice: SK-OV-3; assay type: in vivo; details: 15 mg/kg once weekly for three weeks, Day 26
# Procedure: as §2, §3, §4, §5, §6, §4, §4
# [4] = Multiple tumor models in nude mice: HT1080; assay type: in vivo; details: Human colon caner HT1080; 15 mg/kg once weekly for three weeks; Day 26
# Procedure: as §2, §3, §4, §5, §6, §4, §4
# [5] = test system: Human non-small cell lung cancer A549; assay: Multiple tumor models in nude mice: A549; assay type: in vivo; details: 15 mg/kg once weekly for three weeks, Day 26
# Procedure: as §2, §3, §4, §5, §6, §4, §4
# Human liver cancer Hepg2 = assay: Multiple tumor models in nude mice: Hepg2; assay type: in vivo; details: 15 mg/kg once weekly for three weeks, Day 26
# Procedure: as §2, §3, §4, §5, §6, §4, §4
# BALB/C mice = assay: Maximum tolerated dose (MTD) / acute toxicity by single intravenous injection; details: for Behaviors and death observed: BALB/C mice receiving 90 mg/kg injection
# Human heart = assay type: biochemical; details: for Activation ratio (%) in homogenates from different tumor tissues: Human heart, 1 mg/ml
# tumor tissue homogenates = assay type: biochemical
# Procedure, shortened: as §1
# [6] = Solubility / formulation test in solvent 1 and solvent 2; assay type: physicochemical; details: for Concentration achieved, completely dissolved in both solvent 1 and solvent 2: solvent 1 injectable water
# Procedure: In Table 11, AAN, AANL and AANK indicate the linkage formed by small peptides in the compounds, A is Ala, N is Asn, L is Leu and K is Lys. […] The dissolution concentration is 10 mg/ml.
# B1, B2, B3 and B4 and various control compounds were dried under vacuum, sterilized via gas sterilization, and separately packing in a sterile room. Before animal test, B1, B2, B3 and B4 were dissolved by solvent 1 (injectable water) or solvent 2 (30% alcohol, 70% injectable water) and diluted by injectable water to the desired concentration in sterile room. […] Change in solubility may greatly affect the formulation scheme of a drug.
# D1, D2, D3, D4 and various control compounds were dried under vacuum, sterilized via gas sterilization, and separately packing in a sterile room. […] Change in solubility may greatly affect the formulation scheme of a drug.
# [7] = test system: Human prostate cancer PC-3 cells / Panc-1 cells; assay: Tumor treatment in nude mice (PC-3 cells purchased, Panc-1 cells injected; Examples 22, 32, 42); assay type: in vivo; details: for Inhibition on tumor growth, in words: compared with parent drug group (same molar concentration) and control group
# Procedure, shortened: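 Nude mice bearing subcutaneous Panc-1 xenografts (5×10^6 cells on the back) were randomized once tumors reached at least 100 mm^3. Drugs were given intravenously once weekly for four weeks, with saline controls. PC-3 cells were grown in DMEM/10% FBS and used within passage 15.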
# [8] = Table 26, nude mice, IV once weekly for four weeks, A1-A4 24 mg/kg, Paclitaxel 8 mg/kg
# [9] = Table 28, BALB/C mice, 4T1, lung metastases day 27, IV every three days for 4 times, A1-A4 12 mg/kg, Paclitaxel 4 mg/kg
# [10] = single intravenous injection, 125 mg/kg, 10 BALB/C mice per group
# [11] = single intravenous injection, 150 mg/kg, 10 BALB/C mice per group
# [12] = single intravenous injection, 175 mg/kg, 10 BALB/C mice per group
# [13] = single intravenous injection, 200 mg/kg, 10 BALB/C mice per group
# [14] = nude mice, IV once weekly for four weeks, S1′-S4′ 24 mg/kg, Paclitaxel 8 mg/kg, Day 10
# [15] = nude mice, IV once weekly for four weeks, S1′-S4′ 24 mg/kg, Paclitaxel 8 mg/kg
# [16] = 4T1, BALB/C mice, lung, day 27, IV every three days for 4 times, S1′-S4′ 12 mg/kg, Paclitaxel 4 mg/kg
compound,measurement,setting,value
"COCCOCC(=O)N[C@H](C)C(=O)N[C@H](C)C(=O)N[C@H](CC(N)=O)C(=O)Nc1ccc(COC(=O)N2[C@@H]3CN4C5=C(C(=O)C(N)=C(C)C5=O)[C@H](COC(N)=O)[C@]4(OC)[C@@H]32)cc1 [Compound E1, 2-(2-methoxyethoxy) acetyl-L-Ala-L-Ala-L-Asn-4-amino benzyl mitomycin]",Activation ratio (%) in homogenates from different tumor tissues,"[1]; 37° C., 1 mg/ml, 100 μg acidized homogenate",83.6%
same,"Inhibitory effect on tumor metastasis, in words",4T1 cells,greatly improved
same,Inhibitory rate on metastasis,"4T1 cells; day 27, IV once every three days for 4 times, E1-E4 15 mg/kg, mitomycin 1 mg/kg",99.2%
same,Number of metastasized tumor,"4T1 cells; lung metastases counted on day 27, IV once every three days for 4 times, E1-E4 15 mg/kg, mitomycin 1 mg/kg",2 ± 3
same,inhibitory rate on tumor (Day 26),[2],86.3%
same,inhibitory rate on tumor (Day 26),[3],84.5%
same,inhibitory rate on tumor (Day 26),[4],95.4%
same,inhibitory rate on tumor (Day 26),[5],95.3%
same,inhibitory rate on tumor (Day 26),Human liver cancer Hepg2,85.7%
same,Mortality rate (%),"BALB/C mice; 50 mg/kg single IV injection, 10 BALB/C mice",0%
same,Number of dead animal,"BALB/C mice; 50 mg/kg single IV injection, 10 BALB/C mice, observed 17 days",0
same,Mortality rate (%),"BALB/C mice; 70 mg/kg single IV injection, 10 BALB/C mice",0%
same,Number of dead animal,"BALB/C mice; 70 mg/kg single IV injection, 10 BALB/C mice, observed 17 days",0
same,Mortality rate (%),"BALB/C mice; 90 mg/kg single IV injection, 10 BALB/C mice",0%
same,Number of dead animal,"BALB/C mice; 90 mg/kg single IV injection, 10 BALB/C mice, observed 17 days",0
same,Mortality rate (%),"BALB/C mice; 110 mg/kg single IV injection, 10 BALB/C mice",10%
same,Number of dead animal,"BALB/C mice; 110 mg/kg single IV injection, 10 BALB/C mice, observed 17 days",1
same,Behaviors and death observed,BALB/C mice,"no pilo-erection, hair tousle and lackluster, lethargy, stoop, irritable reaction and death"
COCCOCCOCCOCCOCCOCCOCCOCCOCCOCCOCCOCC(=O)NCCCC[C@H](NC(=O)COCCOCCOCCOCCOCCOCCOCCOCCOCCOCCOCCOC)C(=O)N[C@H](C)C(=O)N[C@H](C)C(=O)N[C@H](CC(N)=O)C(=O)Nc1ccc(COC(=O)OC(C(=O)OC2C[C@@]3(O)[C@@H](OC(=O)c4ccccc4)[C@H]4[C@](C)(C(=O)[C@H](OC(C)=O)C(=C2C)C3(C)C)[C@@H](O)CC2OC[C@]24OC(C)=O)[C@@H](NC(=O)c2ccccc2)c2ccccc2)cc1 (stereo partly shown) [Compound A3],Activation ratio (%) in homogenates from different tumor tissues,"Human heart; acidized homogenate pH6.0, Paclitaxel release by HPLC",none
same,Activation ratio (%) in homogenates from different tumor tissues,"[1]; 1 mg/ml, 100 μg acidized homogenate pH6.0, Paclitaxel release by HPLC",70.3%
same,"Activation efficiency by tumor tissue, in words",tumor tissue homogenates,highest activation efficiency among the screened compounds
same,solubility in Solvent 1,"[6]; solvent 1 (injectable water), Table 22, Paclitaxel series",soluble
same,"Concentration achieved, completely dissolved in both solvent 1 and solvent 2","[6]; solvent 2 45% alcohol, 55% injectable water",10 mg/mL
same,solubility in Solvent 2,"[6]; solvent 2 (45% alcohol, 55% injectable water), Table 22, Paclitaxel series",soluble
same,"Solubility in water, in words",[6]; water,can directly dissolve in water
same,inhibitory rate on tumor Day 10,"[7]; Table 26, nude mice, IV once weekly for four weeks, A1-A4 24 mg/kg, Paclitaxel 8 mg/kg, Day 10",71.9%
same,Size of tumor (mm^3) Day 24,[7]; [8],81.83 ± 89.2 mm^3
same,inhibitory rate on tumor Day 24,[7]; [8],78.5%
same,"Inhibition on tumor growth, in words",[7],greatly improved
same,Inhibitory rate on metastasis,4T1 cells; [9],89.1%
same,Number of metastasized tumor,4T1 cells; [9],16 ± 9
same,"Inhibitory effect on tumor metastasis, in words",4T1 cells,greatly improved
same,Behaviors and death observed,BALB/C mice,"no pilo-erection, hair tousle and lackluster, lethargy, stoop, irritable reaction and death"
same,Mortality rate (%),BALB/C mice; [10],10%
same,Number of dead animal,BALB/C mice; [10],1
same,Mortality rate (%),BALB/C mice; [11],0%
same,Number of dead animal,BALB/C mice; [11],0
same,Mortality rate (%),BALB/C mice; [12],0%
same,Number of dead animal,BALB/C mice; [12],0
same,Mortality rate (%),BALB/C mice; [13],0%
same,Number of dead animal,BALB/C mice; [13],0
COCCOCCOCCOCCOCCOCCOCCOCCOCCOCCOCCOCC(=O)N[C@H](C)C(=O)N[C@H](C)C(=O)N[C@H](CC(N)=O)C(=O)Nc1ccc(COC(=O)OC(C(=O)OC2C[C@@]3(O)[C@@H](OC(=O)c4ccccc4)[C@H]4[C@](C)(C(=O)[C@H](OC(C)=O)C(=C2C)C3(C)C)[C@@H](O)CC2OC[C@]24OC(C)=O)[C@@H](NC(=O)c2ccccc2)c2ccccc2)cc1 (stereo partly shown) [S3′],Activation ratio (%) in homogenates from different tumor tissues,Human heart; 37°,none
same,Activation ratio (%) in homogenates from different tumor tissues,"[1]; 100 μg acidized homogenate pH6.0, 1 mg/ml, 37°",67.9%
same,"Activation efficiency by tumor tissue, in words",tumor tissue homogenates,highest activation efficiency among the screened compounds
same,solubility in Solvent 1,"[6]; Solvent 1 injectable water, dissolution concentration 10 mg/ml",soluble
same,solubility in Solvent 2,"[6]; Solvent 2: 50% injectable water, 45%-49% propanediol, 1%-5% Tween80, dissolution concentration 10 mg/ml",soluble
same,"Concentration achieved, completely dissolved in both solvent 1 and solvent 2","[6]; solvent 2 50% injectable water, 42%-49% propanediol, 1%-8% Tween80",10 mg/mL
same,"Inhibition on tumor growth, in words",[7],greatly improved
same,Size of tumor (mm^3) Day 10,[7]; [14],75.60 ± 28.54 mm^3
same,inhibitory rate on tumor Day 10,[7]; [14],49.4%
same,Size of tumor (mm^3) Day 24,[7]; [15],74.39 ± 48.94 mm^3
same,inhibitory rate on tumor Day 24,[7]; [15],70.2%
same,Inhibitory rate on metastasis,4T1 cells; [16],90.44%
same,Number of metastasized tumor,4T1 cells; [16],13 ± 8
same,"Inhibitory effect on tumor metastasis, in words",4T1 cells,greatly improved
same,Behaviors and death observed,BALB/C mice,"no pilo-erection, hair tousle and lackluster, lethargy, stoop, irritable reaction and death"
same,Mortality rate (%),"BALB/C mice; BALB/C mice, single iv, 125 mg/kg",0%
same,Number of dead animal,"BALB/C mice; BALB/C mice, single iv, 125 mg/kg, 10 animals",0
same,Mortality rate (%),"BALB/C mice; BALB/C mice, single iv, 150 mg/kg",0%
same,Number of dead animal,"BALB/C mice; BALB/C mice, single iv, 150 mg/kg, 10 animals",0
same,Mortality rate (%),"BALB/C mice; BALB/C mice, single iv, 175 mg/kg",0%
same,Number of dead animal,"BALB/C mice; BALB/C mice, single iv, 175 mg/kg, 10 animals",0
same,Mortality rate (%),"BALB/C mice; BALB/C mice, single iv, 200 mg/kg",10%
same,Number of dead animal,"BALB/C mice; BALB/C mice, single iv, 200 mg/kg, 10 animals",1
4-N—(N—(N—(N-(6-maleimido caproyl)-L-alanyl)-L-alanyl)-L-asparaginyl)-amino benzyl alcohol-MMAE-carbamate [Compound S6],Activation Efficiencies (%),"Human heart; Human heart homogenate, 1 mg/ml compound",5.3%
same,Activation Efficiencies (%),"[1]; Human fibrosarcoma HT-1080 tumor tissue homogenate (30 μg/ml), 1 mg/ml compound",24.3%
same,"Activation efficiency by tumor tissue, in words",tumor tissue homogenates,relatively low activation efficiency
